Experimental data published in patent US20220323406A1, “METHODS AND COMPOSITIONS FOR DIFFERENTIATING STEM CELLS” (Massachusetts Institute of Technology, priority 2019, published 2022).
Where a name gives a salt, the structure may show the parent alone.

Assays:
[1] = system: ENR+CD organoids (ISC to Paneth cell differentiation); assay: Primary screen: basal (non-stimulated) lysozyme secretion LYZ.NS, 2.5-D 384-well ENR+CD organoid differentiation; assay type: cell-based, mouse; settings: primary screen; for Z.LYZ.NS: standard z score
Source text: (§1) High-throughput screening.

ENR+CD organoids = assay: Primary screen: ATP (CellTiter-Glo 3D, CTG) cell number/viability, 2.5-D 384-well ENR+CD organoids; settings: primary screen; for Z.CTG: standard z score;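 for all read-outs here: compounds given at plating and again on day 3 over a 6-day differentiation from ENR+CV stem-cell-enriched precursors, ATP measured on day 6, plate median as control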
[2] = system: ENR+CD organoids (ISC to Paneth cell differentiation); assay: Primary screen: CCh-stimulated lysozyme secretion LYZ.S, 2.5-D 384-well ENR+CD organoid differentiation; assay type: cell-based, mouse; settings: primary screen
Source text: as §1

[3] = dose 0.08 uM, FC vs plate median
[4] = dose 0.40 uM, FC vs plate median
[5] = dose 2.00 uM, FC vs plate median
[6] = dose 10.00 uM, FC vs plate median
[7] = dose 0.08 uM, FC relative to plate median
[8] = dose 0.40 uM, FC relative to plate median
[9] = dose 2.00 uM, FC relative to plate median
[10] = dose 10.00 uM, FC relative to plate median

O=C(c1ccc(Nc2nccc(-c3cc4ccccc4s3)n2)cc1)N1CCC(N2CCCC2)CC1 [IKK-16 (IKK Inhibitor VII)]
Dose.FC.LYZ.NS (log2 fold change) ([1]; dose 0.08 uM): 0.104
Z.LYZ.NS (standard z score) ([1]; dose 0.08 uM): 0.903
Dose.FC.LYZ.NS (log2 fold change) ([1]; dose 0.40 uM): 0.020
Z.LYZ.NS (standard z score) ([1]; dose 0.40 uM): 0.176
Dose.FC.LYZ.NS (log2 fold change) ([1]; dose 2.00 uM): −0.081
Z.LYZ.NS (standard z score) ([1]; dose 2.00 uM): −0.708
Dose.FC.LYZ.NS (log2 fold change) ([1]; dose 10.00 uM): −0.291
Z.LYZ.NS (standard z score) ([1]; dose 10.00 uM): −2.531
Dose.FC.CTG (log2 fold change) (ENR+CD organoids; dose 0.08 uM): 0.058
Z.CTG (standard z score) (ENR+CD organoids; dose 0.08 uM): 0.139
Dose.FC.CTG (log2 fold change) (ENR+CD organoids; dose 0.40 uM): −0.051
Z.CTG (standard z score) (ENR+CD organoids; dose 0.40 uM): −0.122
Dose.FC.CTG (log2 fold change) (ENR+CD organoids; dose 2.00 uM): −0.431
Z.CTG (standard z score) (ENR+CD organoids; dose 2.00 uM): −1.029
Dose.FC.CTG (log2 fold change) (ENR+CD organoids; dose 10.00 uM): −0.950
Z.CTG (standard z score) (ENR+CD organoids; dose 10.00 uM): −2.268
Dose.FC.LYZ.S (log2 fold change) ([2]; dose 0.08 uM): 0.092
Dose.FC.LYZ.S (log2 fold change) ([2]; dose 0.40 uM): 0.028
Dose.FC.LYZ.S (log2 fold change) ([2]; dose 2.00 uM): −0.142
Dose.FC.LYZ.S (log2 fold change) ([2]; dose 10.00 uM): −0.383

O=C(O)/C=C/c1ccc(Cn2ccnc2)cc1 [Ozagrel HCl]
Z.LYZ.NS ([1]; dose 0.08 uM): 1.756
Z.LYZ.NS ([1]; dose 0.40 uM): 0.000
Z.LYZ.NS ([1]; dose 2.00 uM): 0.308
Z.LYZ.NS ([1]; dose 10.00 uM): −0.061
Dose.FC.LYZ.NS [1, 3]: 0.202 log2 fold change
Dose.FC.LYZ.NS [1, 4]: 0.000 log2 fold change
Dose.FC.LYZ.NS [1, 5]: 0.035 log2 fold change
Dose.FC.LYZ.NS [1, 6]: −0.007 log2 fold change
Dose.FC.CTG (ENR+CD organoids; [3]): 0.049 log2 fold change
Dose.FC.CTG (ENR+CD organoids; [4]): 0.133 log2 fold change
Dose.FC.CTG (ENR+CD organoids; [5]): 0.183 log2 fold change
Dose.FC.CTG (ENR+CD organoids; [6]): 0.229 log2 fold change
Dose.FC.LYZ.S [2, 3]: 0.119 log2 fold change
Dose.FC.LYZ.S [2, 4]: 0.073 log2 fold change
Dose.FC.LYZ.S [2, 5]: 0.135 log2 fold change
Dose.FC.LYZ.S [2, 6]: 0.061 log2 fold change

O=C(Nc1ccccc1)N1CCN(c2nc(-c3ccccc3)ns2)CC1 [JNJ-1661010]
Dose.FC.LYZ.NS (log2 fold change) ([1]; dose 0.08 uM): 0.122
Z.LYZ.NS (standard z score) ([1]; dose 0.08 uM): 1.066
Dose.FC.LYZ.NS (log2 fold change) ([1]; dose 0.40 uM): 0.075
Z.LYZ.NS (standard z score) ([1]; dose 0.40 uM): 0.653
Dose.FC.LYZ.NS (log2 fold change) ([1]; dose 2.00 uM): 0.103
Z.LYZ.NS (standard z score) ([1]; dose 2.00 uM): 0.897
Dose.FC.LYZ.NS (log2 fold change) ([1]; dose 10.00 uM): 0.047
Z.LYZ.NS (standard z score) ([1]; dose 10.00 uM): 0.406
Dose.FC.CTG (log2 fold change) (ENR+CD organoids; dose 0.08 uM): −0.094
Z.CTG (standard z score) (ENR+CD organoids; dose 0.08 uM): −0.225
Dose.FC.CTG (log2 fold change) (ENR+CD organoids; dose 0.40 uM): −0.262
Z.CTG (standard z score) (ENR+CD organoids; dose 0.40 uM): −0.625
Dose.FC.CTG (log2 fold change) (ENR+CD organoids; dose 2.00 uM): −0.055
Z.CTG (standard z score) (ENR+CD organoids; dose 2.00 uM): −0.131
Dose.FC.CTG (log2 fold change) (ENR+CD organoids; dose 10.00 uM): −0.145
Z.CTG (standard z score) (ENR+CD organoids; dose 10.00 uM): −0.346
Dose.FC.LYZ.S (log2 fold change) ([2]; dose 0.08 uM): 0.135
Dose.FC.LYZ.S (log2 fold change) ([2]; dose 0.40 uM): 0.041
Dose.FC.LYZ.S (log2 fold change) ([2]; dose 2.00 uM): −0.063
Dose.FC.LYZ.S (log2 fold change) ([2]; dose 10.00 uM): −0.068

CN1C(=O)C(Cc2c[nH]c3ccccc23)NC1=S (centres unmarked) [Necrostatin-1]
Z.LYZ.NS ([1]; dose 0.08 uM): 0.524
Z.LYZ.NS ([1]; dose 0.40 uM): 0.174
Z.LYZ.NS ([1]; dose 2.00 uM): 1.338
Z.LYZ.NS ([1]; dose 10.00 uM): 0.496
Dose.FC.LYZ.NS [1, 3]: 0.060 log2 fold change
Dose.FC.LYZ.NS [1, 4]: 0.020 log2 fold change
Dose.FC.LYZ.NS [1, 5]: 0.154 log2 fold change
Dose.FC.LYZ.NS [1, 6]: 0.057 log2 fold change
Z.CTG (ENR+CD organoids; dose 0.08 uM): 0.244
Z.CTG (ENR+CD organoids; dose 0.40 uM): 0.401
Z.CTG (ENR+CD organoids; dose 2.00 uM): 0.027
Z.CTG (ENR+CD organoids; dose 10.00 uM): 0.328
Dose.FC.CTG (ENR+CD organoids; [3]): 0.102 log2 fold change
Dose.FC.CTG (ENR+CD organoids; [4]): 0.168 log2 fold change
Dose.FC.CTG (ENR+CD organoids; [5]): 0.011 log2 fold change
Dose.FC.CTG (ENR+CD organoids; [6]): 0.137 log2 fold change
Dose.FC.LYZ.S [2, 3]: 0.077 log2 fold change
Dose.FC.LYZ.S [2, 4]: 0.038 log2 fold change
Dose.FC.LYZ.S [2, 5]: 0.092 log2 fold change
Dose.FC.LYZ.S [2, 6]: 0.229 log2 fold change

Cc1ccc(NC(=O)c2ccc(CN3CCN(C)CC3)cc2)cc1Nc1nccc(-c2cccnc2)n1 [Imatinib (STI571)]
Dose.FC.LYZ.NS (log2 fold change) ([1]; dose 0.08 uM): 0.033
Z.LYZ.NS (standard z score) ([1]; dose 0.08 uM): 0.284
Dose.FC.LYZ.NS (log2 fold change) ([1]; dose 0.40 uM): 0.012
Z.LYZ.NS (standard z score) ([1]; dose 0.40 uM): 0.104
Dose.FC.LYZ.NS (log2 fold change) ([1]; dose 2.00 uM): 0.025
Z.LYZ.NS (standard z score) ([1]; dose 2.00 uM): 0.217
Dose.FC.LYZ.NS (log2 fold change) ([1]; dose 10.00 uM): −0.038
Z.LYZ.NS (standard z score) ([1]; dose 10.00 uM): −0.333
Dose.FC.CTG (log2 fold change) (ENR+CD organoids; dose 0.08 uM): −0.150
Z.CTG (standard z score) (ENR+CD organoids; dose 0.08 uM): −0.357
Dose.FC.CTG (log2 fold change) (ENR+CD organoids; dose 0.40 uM): 0.079
Z.CTG (standard z score) (ENR+CD organoids; dose 0.40 uM): 0.188
Dose.FC.CTG (log2 fold change) (ENR+CD organoids; dose 2.00 uM): 0.056
Z.CTG (standard z score) (ENR+CD organoids; dose 2.00 uM): 0.135
Dose.FC.CTG (log2 fold change) (ENR+CD organoids; dose 10.00 uM): −0.034
Z.CTG (standard z score) (ENR+CD organoids; dose 10.00 uM): −0.082
Dose.FC.LYZ.S (log2 fold change) ([2]; dose 0.08 uM): 0.000
Dose.FC.LYZ.S (log2 fold change) ([2]; dose 0.40 uM): 0.038
Dose.FC.LYZ.S (log2 fold change) ([2]; dose 2.00 uM): −0.001
Dose.FC.LYZ.S (log2 fold change) ([2]; dose 10.00 uM): −0.037

O=C(Nc1cc(C(F)(F)F)ccc1N1CCCCC1)c1ccncc1 [SRPIN340]
Dose.FC.LYZ.NS [1, 7]: 0.115 log2 fold change
Z.LYZ.NS ([1]; dose 0.08 uM): 1.004
Dose.FC.LYZ.NS [1, 8]: 0.040 log2 fold change
Z.LYZ.NS ([1]; dose 0.40 uM): 0.348
Dose.FC.LYZ.NS [1, 9]: 0.097 log2 fold change
Z.LYZ.NS ([1]; dose 2.00 uM): 0.846
Dose.FC.LYZ.NS [1, 10]: 0.022 log2 fold change
Z.LYZ.NS ([1]; dose 10.00 uM): 0.192
Dose.FC.CTG (ENR+CD organoids; [7]): 0.421 log2 fold change
Z.CTG (ENR+CD organoids; dose 0.08 uM): 1.005
Dose.FC.CTG (ENR+CD organoids; [8]): 0.445 log2 fold change
Z.CTG (ENR+CD organoids; dose 0.40 uM): 1.063
Dose.FC.CTG (ENR+CD organoids; [9]): 0.453 log2 fold change
Z.CTG (ENR+CD organoids; dose 2.00 uM): 1.083
Dose.FC.CTG (ENR+CD organoids; [10]): 0.467 log2 fold change
Z.CTG (ENR+CD organoids; dose 10.00 uM): 1.115
Dose.FC.LYZ.S [2, 7]: 0.112 log2 fold change
Dose.FC.LYZ.S [2, 8]: 0.098 log2 fold change
Dose.FC.LYZ.S [2, 9]: 0.100 log2 fold change
Dose.FC.LYZ.S [2, 10]: 0.078 log2 fold change
